In paper PMC3871601, “Potential Cooperations between Odorant-Binding Proteins of the Scarab Beetle Holotrichia oblita Faldermann (Coleoptera: Scarabaeidae)” (PLoS ONE, 2013):
Read-outs that look alike come from different tables or passages of the source.

Assays:
HoblOBP3 = HoblOBP3 (Holotrichia oblita, UniProt G9BWQ7); experiment: biochemical; assay type: binding
Description: (§1) N-phenyl-1-naphthylamine (1-NPN) was selected as a probe to measure the affinity of the 1-NPN fluorescent ligand to proteins. A 1-cm light path quartz cuvette was used, and the fluorescence spectra were recorded on a Lengguang 970 CRT spectrofluorimeter (Shanghai Jingmi, China) at room temperature in a right angle configuration. The parameter selection was such that the slit widths for both excitation and emission were 10 nm. 1-NPN was excited at 337 nm and the emission spectra were recorded between 350 and 550 nm. Spectra were recorded using high-speed scanning.
(§2) The 2 µM protein solution was dissolved in 50 mM Tris-HCl buffer with pH 7.4, and the ligands were dissolved in chromatographically pure methanol as a 1 mM stock solution. 1-NPN was dissolved in chromatographically pure methanol as a 1 mM stock solution.
(§3) To determine the dissociation constants, the intensity values corresponding to the maximum fluorescence emission were plotted against free ligand concentrations. Assuming that the protein was 100% active and that the stoichiometric ratio between the protein and ligand was 1:1 at saturation, the bound ligand was determined from the fluorescence intensity values. The curves were then linearized using Scatchard plots. The K1-NPN values were estimated using GraphPad Prism 5 Software by nonlinear regression for a unique binding site. The dissociation constants of the competitors (Ki) were calculated from the corresponding IC50 values using the following equation: Ki = [IC50]/1+[1-NPN]/K1-NPN. […] [1-NPN] represented the free concentration of 1-NPN, and K1-NPN represented the dissociation constant of the complex protein/1-NPN [76].

HoblOBP4 = HoblOBP4 (Holotrichia oblita, UniProt G9BWQ8); experiment: biochemical; assay type: binding
Description: as §1, §2, §3

[1] = HoblOBP3, dash = IC50 exceeded 50 µM, read-out: IC50 (dash)
[2] = HoblOBP3, dash = ligand whose IC50 exceeded 50 µM, Ki not given, read-out: Ki (dash)
[3] = pH 7.4, HoblOBP3, at the ligand concentration 24 µM, protein and 1-NPN both 2 µM, read-out: Int (fluorescence intensity as percent of the initial fluorescence)
[4] = HoblOBP4, dash = IC50 exceeded 50 µM, read-out: IC50 (dash)
[5] = HoblOBP4, dash = ligand whose IC50 exceeded 50 µM, Ki not given, read-out: Ki (dash)
[6] = pH 7.4, HoblOBP4, at the ligand concentration 24 µM, protein and 1-NPN both 2 µM, read-out: Int (fluorescence intensity as percent of the initial fluorescence)
[7] = pH 7.4, read-out: Int (fluorescence intensity as percent of the initial fluorescence)
[8] = HoblOBP4, calculated from IC50 and K1-NPN, read-out: Ki
[9] = HoblOBP4, protein and 1-NPN both 2 µM, ligand titrated 2–50 µM, read-out: IC50 (concentration of ligand halving the initial fluorescence intensity)
[10] = HoblOBP3, at the ligand concentration 24 µM, protein and 1-NPN both 2 µM
[11] = HoblOBP4, at the ligand concentration 24 µM, protein and 1-NPN both 2 µM

Sequence of HoblOBP3 (G9BWQ7 entry or part of it): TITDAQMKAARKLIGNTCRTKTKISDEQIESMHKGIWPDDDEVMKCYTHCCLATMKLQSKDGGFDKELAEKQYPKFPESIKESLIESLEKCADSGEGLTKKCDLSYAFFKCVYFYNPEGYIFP
Sequence of HoblOBP4 (G9BWQ8 entry or part of it): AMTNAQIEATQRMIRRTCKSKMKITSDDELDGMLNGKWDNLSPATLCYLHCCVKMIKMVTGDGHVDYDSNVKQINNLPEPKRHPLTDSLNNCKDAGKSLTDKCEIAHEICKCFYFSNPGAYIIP

| SMILES | IC50 (HoblOBP3; [1]) | Ki (HoblOBP3; [2]) | activity at 24 µM (HoblOBP3; [3]) | activity at 24 µM (HoblOBP4; [6]) | Ki (HoblOBP4; [8]) | IC50 (HoblOBP4; [9]) | IC50 (HoblOBP3) | Ki (HoblOBP3) | IC50 (HoblOBP4) | Ki (HoblOBP4) | further results |
| --- | --- | --- | --- | --- | --- | --- | --- | --- | --- | --- | --- |
| C=CC(=C)CCC=C(C)C [Myrcene] | > 50 µM | > 50 µM | 74% | 56% |  |  |  |  |  |  | IC50 (HoblOBP4; [4]): > 50 µM; Ki (HoblOBP4; [5]): > 50 µM |
| O=CCc1ccccc1 [Benzeneacetaldehyde] | > 50 µM | > 50 µM |  |  |  |  |  |  |  |  | IC50 (HoblOBP4; [4]): > 50 µM; Ki (HoblOBP4; [5]): > 50 µM |
| CCCCCCCC [Octane] | > 50 µM | > 50 µM |  |  | 18.4 µM | 25 µM |  |  |  |  | activity at 24 µM (HoblOBP3; [7]): 70%; activity at 24 µM (HoblOBP4; [7]): 51% |
| CC(=O)/C=C/C1C(C)=CCCC1(C)C (stereo not drawn) [α-Ionone] |  |  |  |  |  |  | 16 µM | 10.4 µM | 19 µM | 14 µM | activity at 24 µM (HoblOBP3; [7]): 41%; activity at 24 µM (HoblOBP4; [7]): 45% |
| CCCCCCCCCC=O [1-Decanal] | > 50 µM | > 50 µM | 86% | 68% |  |  |  |  |  |  | IC50 (HoblOBP4; [4]): > 50 µM; Ki (HoblOBP4; [5]): > 50 µM |
| CCC/C=C\CO [cis-2-Hexen-1-ol] |  |  | 70% | 42% |  |  | > 50 µM | > 50 µM | 14 µM | 10.3 µM |  |
| CCOC(=O)[C@@H]1CCCN1 [L-Proline ethyl ester] | > 50 µM | > 50 µM |  |  | 14.7 µM | 20 µM |  |  |  |  | Int (fluorescence intensity as percent of the initial fluorescence) (HoblOBP3; [10]): 70%; Int (fluorescence intensity as percent of the initial fluorescence) (HoblOBP4; [11]): 47% |
| C=C1CC/C=C(\C)CC[C@@H]2[C@@H]1CC2(C)C [β-Caryophyllene] |  |  |  |  |  |  | > 50 µM | > 50 µM | > 50 µM | > 50 µM |  |
| CCCCOC(=O)c1ccccc1 [Butyl Benzoate] | > 50 µM | > 50 µM | 69% | 40% | 8.1 µM | 11 µM |  |  |  |  |  |
| CCCCCC=O [1-Hexanal] |  |  | 68% | 42% |  |  | > 50 µM | > 50 µM | 15 µM | 11 µM |  |
| CCCCCCOC(=O)c1ccccc1 [Hexyl benzoate] | > 50 µM | > 50 µM | 53% | 36% | 2.9 µM | 4 µM |  |  |  |  |  |
| CC/C=C\CCO [cis-3-Hexen-1-ol] |  |  |  |  |  |  | > 50 µM | > 50 µM | 17 µM | 12.5 µM | activity at 24 µM (HoblOBP3; [7]): 81%; activity at 24 µM (HoblOBP4; [7]): 46% |
| CCCOC(=O)c1ccccc1 [Propyl benzoate] | > 50 µM | > 50 µM | 81% | 48% | 14.7 µM | 20 µM |  |  |  |  |  |
| CCCCCCCCC [Nonane] | > 50 µM | > 50 µM |  |  |  |  |  |  |  |  | IC50 (HoblOBP4; [4]): > 50 µM; Ki (HoblOBP4; [5]): > 50 µM |
| CCCCC=O [1-Pentanal] |  |  | 65% | 44% | 11.8 µM | 16 µM |  |  |  |  | Ki (HoblOBP3; HoblOBP3, calculated from IC50 and K1-NPN, read-out: Ki): 26.8 µM; IC50 (HoblOBP3; HoblOBP3, protein and 1-NPN both 2 µM, ligand titrated 2–50 µM, read-out: IC50 (concentration of ligand halving the initial fluorescence intensity)): 41 µM |
| CCCCCCC [Heptane] |  |  | 63% | 43% |  |  | > 50 µM | > 50 µM | 16 µM | 11.8 µM |  |
| CC(C)[C@@H]1CC[C@@H](C)C[C@H]1OC(=O)c1ccccc1O [Menthyl salicylate] | > 50 µM | > 50 µM |  |  |  |  |  |  |  |  | Int (fluorescence intensity as percent of the initial fluorescence) (HoblOBP3; [10]): 75%; Int (fluorescence intensity as percent of the initial fluorescence) (HoblOBP4; [11]): 54%; IC50 (HoblOBP4; [4]): > 50 µM; Ki (HoblOBP4; [5]): > 50 µM |
| CC(C)=CCC/C(C)=C/CO [Geraniol] |  |  |  |  |  |  | > 50 µM | > 50 µM | 16 µM | 11.8 µM | activity at 24 µM (HoblOBP3; [7]): 79%; activity at 24 µM (HoblOBP4; [7]): 44% |
| CC[C@H](C)[C@H](N)C(=O)OC [L-Isoleucine methyl ester] | > 50 µM | > 50 µM | 68% | 49% | 17.7 µM | 24 µM |  |  |  |  |  |
| CC1=CCC(O)(C(C)C)CC1 (stereo not shown) [Terpinen-4-ol] |  |  |  |  |  |  | > 50 µM | > 50 µM | 21 µM | 15.4 µM | activity at 24 µM (HoblOBP3; [7]): 75%; activity at 24 µM (HoblOBP4; [7]): 48% |
| O=Cc1ccccc1 [Benzaldehyde] |  |  |  |  |  |  | > 50 µM | > 50 µM | 17 µM | 12.5 µM | activity at 24 µM (HoblOBP3; [7]): 68%; activity at 24 µM (HoblOBP4; [7]): 44% |
| CC(C)(C)C1CCC(O)CC1 (stereo not shown) [4-tert-Butyl cyclohexanol] | > 50 µM | > 50 µM | 68% | 49% | 14 µM | 19 µM |  |  |  |  |  |
| O=C1C=CCCC1 [2-Cyclohexen-1-one] | > 50 µM | > 50 µM | 70% | 49% | 16.9 µM | 23 µM |  |  |  |  |  |
| CCC/C=C/C=O [trans-2-Hexenal] |  |  |  |  |  |  | > 50 µM | > 50 µM | 11 µM | 8.1 µM | activity at 24 µM (HoblOBP3; [7]): 74%; activity at 24 µM (HoblOBP4; [7]): 39% |
| CCCCCCCCCO [1-Nonanol] | > 50 µM | > 50 µM | 71% | 46% | 11.8 µM | 16 µM |  |  |  |  |  |
| CCCCCCO [1-Hexanol] | > 50 µM | > 50 µM | 91% | 45% | 8.8 µM | 12 µM |  |  |  |  |  |
| CCCCCCCCCC [Decane] | > 50 µM | > 50 µM |  |  |  |  |  |  |  |  | IC50 (HoblOBP4; [4]): > 50 µM; Ki (HoblOBP4; [5]): > 50 µM |
| CC/C=C\CCOC(C)=O [(Z)-3-Hexenyl acetate] | > 50 µM | > 50 µM | 78% | 56% | 29.4 µM | 40 µM |  |  |  |  |  |
| CCCCCCCO [1-Heptanol] | > 50 µM | > 50 µM | 70% | 46% | 15.4 µM | 21 µM |  |  |  |  |  |
| C=C(C)C1CC=C(C)CC1 (stereo not shown) [Limonene] |  |  | 56% | 52% |  |  | > 50 µM | > 50 µM | > 50 µM | > 50 µM |  |
